Test results from article PMC8070447, “Facile Synthesis and In Vitro Activity of N-Substituted 1,2-Benzisothiazol-3(2H)-ones against Dengue Virus NS2BNS3 Protease” (Pathogens, 2021).
Entries after “also recorded” stand apart in the source; their conditions may differ. Where two headings read alike, the source gives them in different places.

Columns and labels:
[1] = target: recombinant DENV2 NS2BNS3 protease (Dengue virus type 2, UniProt P29990); experiment: DENV2 NS2BNS3 protease inhibition assay (fluorogenic Bz-Nle-Lys-Arg-Arg-AMC substrate); type: biochemical; conditions: for inhibition at 50 µM: single dose 50 μM BIT, 100 nM protease
Experimental: The DENV NS2BNS3 activity inhibition assays were conducted in a 96-well plate containing 100 μL total reaction mixture. […] The reaction, in triplicates, was initiated by the addition of 100 nM DENV2 NS2B-NS3, and the release of fluorogenic AMC was measured at 60 s intervals using a spectrofluorometer for a maximum reaction time of 30 min. A solvent (DMSO) control was run for each assay plate by measuring the activity of DENV NS2BNS3 in the absence of BITs (DMSO control). The effect of background fluorescence was measured by preparing a calibration curve, which in turn was obtained by spiking known concentrations of free AMC in the same volume of the reaction mixtures containing the buffer, enzyme and compounds, and comparing the slope of this curve with that obtained using free AMC concentrations in reaction mixtures containing the buffer, enzyme, no compound and no substrate. The percentage of inhibition was calculated using the measurement of the initial rates of reaction in the presence (vexp) , or absence (vpro) of BIT according to the following formula: Inhibition (%)= 100−(vexp/vpro×100).
For the dose–response experiments, the assays were conducted as described above in the presence of threefold serial dilutions of BITs, ranging from 0.076–500 μM concentrations in DMSO. The final concentration of DMSO in each reaction mixture was less than 5%. IC50 values were obtained by plotting the residual activity of the DENV protease vs. log of the concentration of BITs by using GraphPad Prism v.7 software (San Diego, CA USA). For the positive control, aprotinin was used in a 5 μM concentration. All experiments were conducted in triplicates.
The synthesised BITs were tested for their inhibitory activity against the DENV2 NS2B/NS3 protease assay using the previously reported 96-well plate method. […] A reduction in the cleavage of the […] (AMC) measured in terms of the reduction of fluorescence was deemed to show inhibition of the protease and is reported as a percentage inhibition compared with the solvents’ control reaction. […] Aprotinine was used as the positive control, as described previously.
A threefold serial dilution of the selected BITs, ranging from 150 μM to about 200 nM, were screened in triplicate experiments, as described above. The kinetic data were obtained and the protease’s residual activities in the presence of the tested BITs were inserted into the dose–response model rooted in the GraphPad Prism software (version 7.0).
Figure 3 Inhibition and dose–response of DENV NS2BNS3 protease against the BITs. (A) A concentration of 50 μM BITs was incubated in the presence of 100 nM recombinant DENV2 NS2BNS3 protease and 5 µM tetrapeptide-AMC substrate in a Tris buffer at pH 9.5. The time-dependent release of fluorescent AMC tag was measured for 30 min and compared with the solvent control (−). […] Aprotinine (5 µM) was used as a positive control. Each bar represents a mean value of three replicates. […] The dashed horizontal line indicates the 50% activity level.

DENV2 [2] = experiment: DENV replication assay, viral RNA in supernatant by RT-qPCR; type: cell-based, DENV2 in Vero cells; conditions: 30 μM, Vero cells pre-incubated 1 h, supernatant after two days
Experimental: Based on the manufacturer’s manual, viral RNA was isolated from 200 µL cell culture supernatants using the Roche HP Viral Nucleic Acid Kit (Roche, Mannheim, Germany). Relative viral genome copy numbers were determined using 5 µL of the eluted RNA and RT-qPCR using the LightMix® Modular Dengue kit (TIB MOLBIOL, Germany) in combination with the LightCycler RNA Process Control Kit (Roche, Mannheim, Germany). All reactions were performed in triplicates on Roche LightCycler96 or Roche LightCycler480 II qPCR machines (Roche, Mannheim, Germany). The relative RNA concentration was determined using an RNA standard curve and the respective cycler software. The quality of the RT-qPCRs was ensured by following the Minimum Information for Publication of Quantitative […] Experiments guidelines, i.e., the recursion coefficient of the relative standard curve (r^2) was >0.95, and the triplicate assays with a standard deviation of >0.5 were excluded from the analyses. The resulting genome copy numbers were expressed as genome copies per millilitre of the cell culture supernatants. The statistical significance of the reduction in viral titres was calculated using Student’s t-test by comparing the viral load of a single compound with the DMSO control.
The BITs were tested for cytotoxicity in the Vero cells before their evaluation in cell culture assays (Figure S1). […] The BITs showing weaker DENV2 NS2BNS3 protease activity in the biochemical assay were excluded in the in vitro evaluations. […] All infections were performed in triplicate. After two days, the cellular supernatants were collected and the viral RNAs were isolated and quantified using real-time quantitative polymerase chain reaction (RT-qPCR).
(§1) (A) Vero cells were infected with DENV2 and incubated in the presence of the compounds. After incubation, viral RNA was isolated and quantified using RT-qPCR. (B) Viral infectivity of the compounds 5m and 5n was determined using immunofluorescence (IF) staining.

DENV2 [3] = experiment: Viral infectivity by immunofluorescence staining of Vero cells infected with supernatants; type: cell-based, DENV2 in Vero cells
Experimental: The inhibition of viral replication was analysed using immunofluorescence staining. Vero cells were preincubated with selected BITs at 30 μM. The cells were subsequently infected with DENV-2 (multiplicity of infection (MOI) of 0.5). Cellular supernatants were collected after 2 days, centrifuged at 2000 rpm for 5 min to remove the detached cells, and titrated on Vero cells. These cells were fixed with 4% paraformaldehyde 3 days after infection. We performed immunofluorescence staining to visualise the infected cells with monoclonal anti-DENV-2 E antibodies. Bound antibodies were detected with a Cy3-conjugated donkey anti-mouse antibody (Dianova, Hamburg, Germany) (1:500). Stained infected cells were counted using a fluorescence microscope, and the viral titres were calculated. The experiment was performed in triplicates. The statistical significance of the reduction of infected cells was calculated using Student’s t-test by comparing numbers of infected cells incubated with a compound with the DMSO control.
To further analyse whether the compounds 5m and 5n suppressed the viral gene infectivity, Vero cells were pretreated with the compounds and subsequently infected with DENV2 for two days. Cellular supernatants were uses to infect the Vero cells. After two additional days, the infected cells were visualised using immunofluorescence with anti-DENV antibodies. The stained cells were counted (Figure 5).
as §1

[4] = Vero cells pretreated, DENV2, immunofluorescence

recombinant DENV2 NS2BNS3 protease, sequence (P29990 1398-1437): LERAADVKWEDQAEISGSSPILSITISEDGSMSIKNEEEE
recombinant DENV2 NS2BNS3 protease, sequence (P29990 1476-1653): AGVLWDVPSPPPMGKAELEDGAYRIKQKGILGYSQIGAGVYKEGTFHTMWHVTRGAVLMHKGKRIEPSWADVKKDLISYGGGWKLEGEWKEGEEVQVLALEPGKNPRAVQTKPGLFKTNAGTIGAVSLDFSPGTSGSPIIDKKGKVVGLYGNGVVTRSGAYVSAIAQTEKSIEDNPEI

Compound | melting point [°C] | IC50 [1] [µM] | inhibition at 50 µM [1] [%] | suppression of DENV replication (viral RNA, RT-qPCR) (DENV2 [2]) | also measured
CCCCc1ccc(-n2sc3ccccc3c2=O)cc1 [Compound 5g, 2-(4-Butylphenyl)benzo[d]isothiazol-3(2H)-one] | 168 to 172 | – | – | – | –
O=c1c2ccccc2sn1-c1ccccc1[N+](=O)[O-] [Compound 5h, 2-(2-Nitrophenyl)benzo[d]isothiazol-3(2H)-one] | 199 to 200 | 41.8 ± 1.17 | ~70 | – | –
O=c1c2ccccc2sn1-c1ccc([N+](=O)[O-])cc1 [Compound 5i, 2-(4-Nitrophenyl)benzo[d]isothiazol-3(2H)-one] | 126 to 129 | – | – | – | –
Cc1cc([N+](=O)[O-])ccc1-n1sc2ccccc2c1=O [Compound 5j, 2-(2-Methyl-4-nitrophenyl)benzo[d]isothiazol-3(2H)-one] | 135 to 138 | 2.56 ± 1.03 | > 90 | did not show any activity against DENV2 | –
O=c1c2ccccc2sn1-c1ccc(Br)cc1 [Compound 5k, 2-(4-Bromophenyl)benzo[d]isothiazol-3(2H)] | 138 to 140 | 8.24 ± 1.16 | 80 | – | –
O=c1c2ccccc2sn1-c1ccccc1O [Compound 5l, 2-(2-Hydroxyphenyl)benzo[d]isothiazol-3(2H)-one] | 198 to 200 | 6.66 ± 2.17 | ≥ 90 | – | –
O=c1c2ccccc2sn1-c1ccccc1Cl [Compound 5m, 2-(2-Chlorophenyl)benzo[d]isothiazol-3(2H)-one] | – | 2.01 ± 0.98 | > 90 | able to suppress DENV replication at a significant level; also recorded: inhibited DENV replication | reduction of viral infectivity (DENV2 [3]): 1 log value; reduction of viral infectivity (DENV2 [3]; [4]): 1.4 orders of magnitude; reduction of viral infectivity (in words) (DENV2 [3]; [4]): inhibited DENV replication and viral infectivity; reduction of viral infectivity (in words) (DENV2 [3]; Vero cells pretreated, DENV2, immunofluorescence, listed as 2-(2-chlorophenyl)benzo[d]isothiazol-3(2H)-one): could suppress DENV replication and virus infectivity; suppression of DENV replication (viral RNA, RT-qPCR) (DENV2 [2]; listed as 2-(2-chlorophenyl)benzo[d]isothiazol-3(2H)-one): could suppress DENV replication
O=c1c2ccccc2sn1-c1c(Cl)cccc1Cl [Compound 5n, 2-(2,6-Dichlorophenyl)benzo[d]isothiazol-3(2H)-one] | 188 to 190 | 5.28 ± 1.89 | > 90 | able to suppress DENV replication at a significant level | reduction of viral infectivity (in words) (DENV2 [3]; [4]): about sixfold; reduction of viral infectivity (in words) (DENV2 [3]; Vero cells pretreated, DENV2, immunofluorescence, listed as 2-(2,6-dichlorophenyl)benzo[d]isothiazol-3(2H)-one): could suppress DENV replication and virus infectivity; suppression of DENV replication (viral RNA, RT-qPCR) (DENV2 [2]; listed as 2-(2,6-dichlorophenyl)benzo[d]isothiazol-3(2H)-one): could suppress DENV replication
COc1ccc(-n2sc3ccccc3c2=O)cc1 [Compound 5o, 2-(4-Methoxyphenyl)benzo[d]isothiazol-3(2H)-one] | – | 26.5 ± 4.32 | 58 | – | –
